Results published in patent publication US10941157B2, “Pesticidal compositions and uses thereof” (Gilead Apollo, LLC, priority 2015, dated 2021).
≈ marks a conversion by molar mass, not a printed value. Where two headings read alike, the source gives them in different places.

Experiments:
[1] = test system: Botrtyis cinerea (Bc); assay: In vitro pathogen growth inhibition assay, Bc; format: cell-based; settings: 48 h, ≥90% inhibition; 48 hours vs 2% DMSO control; read-out: Compound Concentration (ppm) sufficient for ≥90% inhibition of growth, Bc
How it was run: (§1)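 Spores in 17% V8 liquid medium, or 1.5 mm Rs mycelial plugs in ¼ PDB, incubated with compound; final concentration checked by OD600 for precipitation. OD readings at 24 and 48 h, blank-subtracted, plus visual ratings; value is concentration giving ≥90% growth inhibition.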

[2] = test system: Collectotrichum graminicola (Cg); assay: In vitro pathogen growth inhibition assay, Cg; format: cell-based; settings: 48 h, ≥90% inhibition; 48 hours vs 2% DMSO control; read-out: Compound Concentration (ppm) sufficient for ≥90% inhibition of growth, Cg
How it was run: as §1

[3] = test system: Diplodia maydis (Dm); assay: In vitro pathogen growth inhibition assay, Dm; format: cell-based; settings: Stenocarpella maydis, 48 h, ≥90% inhibition; 48 hours vs 2% DMSO control; read-out: Compound Concentration (ppm) sufficient for ≥90% inhibition of growth, Dm
How it was run: (§2)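 Value reported is the compound concentration reaching ≥90% growth inhibition, from OD readings at 24 and 48 h after blank subtraction, confirmed visually. Inoculum was spores diluted in 17% V8 medium, except Rs, using 1.5 mm mycelial plugs in ¼ PDB; actual compound concentration corrected via OD600.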

[4] = test system: Fusarium moniliforme (Fm); assay: In vitro pathogen growth inhibition assay, Fm; format: cell-based; settings: Fusarium verticillioides
How it was run: as §1

[5] = test system: Fusarium virguliforme (Fv); assay: In vitro pathogen growth inhibition assay, Fv; format: cell-based
How it was run: as §2

[6] = test system: Phytophthora capsici (Pc); assay: In vitro pathogen growth inhibition assay, Pc; format: cell-based; settings: 48 h, ≥90% inhibition, 48 hours vs 2% DMSO control, read-out: Compound Concentration (ppm) sufficient for ≥90% inhibition of growth, Pc
How it was run: as §2

[7] = test system: Rhizoctonia solani (Rs); assay: In vitro pathogen growth inhibition assay, Rs (mycelial plugs); format: cell-based; settings: Rhizoctonia solani, 48 h, mycelial plugs
How it was run: as §2

[8] = test system: Septoria tritici (St); assay: In vitro pathogen growth inhibition assay, St; format: cell-based
How it was run: as §1

[9] = test system: Blumeria graminis f. sp. hordei; assay: Foliar protection test for barley powdery mildew control; format: in vivo; settings: foliar spray on Hordeum vulgare cv. Perry, inoculated 24 hours after treatment, evaluated 7 days later
How it was run: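 Six-day-old barley (cv. Perry) sprayed to wetness on both leaf sides; 24 h later inoculated by shaking spores from infected stock plants. Kept at 20 to 22° C, 70% relative humidity; mildew colonization assessed 7 days later.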

[10] = test system: Sphaerotheca fuliginea; assay: Foliar protection for cucumber powdery mildew control; format: in vivo; settings: foliar spray on Cucumis sativus cv. Straight Eight, inoculated 24 hours after treatment, evaluated 7 days later
How it was run: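 Cucumber plants (cv. Straight Eight, 10 days old) sprayed to wetness on both leaf surfaces, then inoculated 24 h later by shaking sporulating stock plants over them. Held at 23–27 °C, 16 h light, 60% RH. Mildew colonization scored 7 days after inoculation, at compound concentrations of 10 ppm or lower.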

[11] = test system: Mycosphaerella graminicola (synthetic Septoria tritici); assay: Foliar protection test for wheat septoria leaf blotch control; format: in vivo; settings: foliar spray on Triticum aestivum cv. WinterHawk, inoculated 1 hour after treatment, evaluated 16 days later
[12] = test system: Fusarium graminearum; format: in vivo; settings: spray on flowering Triticum aestivum cv. Samson, inoculated 24 hours after treatment, evaluated 14 days later
[13] = test system: Puccinia triticina; assay: Foliar protection test for wheat leaf rust control; format: in vivo; settings: foliar application to wheat (Triticum aestivum cv. Winterhawk), evaluated 10 days later
[14] = test system: Phakopsora pachyrhizi; assay: Foliar protection test for Asian soybean rust control; format: in vivo; settings: foliar application to soybean (Glycine max AG4832), percent disease area evaluated 14 days later
[15] = test system: Fusarium graminearum; format: in vivo; settings: corn from treated seeds, 0.025 mg/seed, F. graminearum inoculated, Table 12
[16] = test system: Blumeria graminis f. sp. hordei; assay: Early foliar disease control via seed treatment (barley powdery mildew); format: in vivo; settings: seed treatment rate 0.025 mg/seed; barley inoculated 7 days after planting, evaluated 7 days later
Protocol: Barley seeds (Hordeum vulgare cv. Perry or Conlon) were treated with a test compound dissolved in pure acetone, in which the acetone solution (1 mL) was used per 50 seeds in glass jars in a fume hood. The seeds were swirled in the glass jars by hand until no obvious presence of acetone remained and the seeds were mostly dry. Plants were grown for 7 days in 2-inch square pots containing Metromix 200 medium amended with fertilizer. […] After inoculation with the pathogen of Blumeria graminis f. sp. hordei, plants were kept at conditions of 20 to 22° C., 200 uM of light, 70% humidity to facilitate infection and disease development. At 7 days after planting (1st true leaf fully expanded), the plants were moved to the cooler chamber and inoculated by shaking well-colonized, untreated stock plants above the treated material. […] Efficacy was evaluated in 7 days later by examining leaves for colonization and growth of powdery mildew. Each side of each leaf was assigned a severity rating of 0, 1, 5, 10, 25, 50, 75, or 100 percent diseased area. Table 14 lists the results of barley powdery mildew control upon seed treatment with test compounds.

[17] = test system: Rhizoctonia solani; assay: Seed protectant for soybean seedling disease, R. solani; format: in vivo; settings: soybean from treated seeds, 0.025 mg/seed, R. solani inoculated
Protocol: (§3) The pathogen of Rhizoctonia solani inoculum was grown on sterile sorghum; and the pathogen of Pythium ultimum inoculum was grown on white millet.
(§4) Soybean seeds (Glycine max cv. AG4832) were planted in 2.5-inch square pots containing Berger BM2 germination mix amended with fertilizer (e.g., 14-14-14). Pots with soil were inoculated with the pathogen of R. solani or P. ultimum at time of planting. A hole was pressed into the soil to a depth of about 2 to 3 cm; the inoculum was added to the hole, followed by the seed which was then covered with soil. Two seeds per pot were planted. Plants were grown in a growth chamber at conditions of 20 to 24° C., 14 hour light cycle, 500 uM of light, and 65% humidity. The pots inoculated with P. ultimum were sub-irrigated every day; and the pots inoculated with R. solani were sub-irrigated every other day.
(§5) Seedling emergence was captured at 7 and 14 days after seeding. At 14 days, the top of the plant was removed and fresh weight was recorded. The plant weights from the seeds treated with test compounds (e.g., in formulations) were compared to the ones either from the inoculated non-treated seeds or non-inoculated non-treated seeds. Table 10 lists the results of the R. solani control in soybean upon seed treatment with test compounds, and Table 11 lists the results of the P. ultimum control in soybean upon seed treatment with test compounds, respectively.

[18] = test system: Pythium ultimum; assay: Seed protectant for soybean seedling disease, P. ultimum; format: in vivo; settings: soybean from treated seeds, 0.025 mg/seed, P. ultimum inoculated
Protocol: as §3, §4, §5

[19] = percentage of non-inoculated non-treated controls

SMILES | Barley Powdery Mildew Control at a compound concentration of 10 ppm or lower [9] | Cucumber Powdery Mildew Control at a compound concentration of 10 ppm or lower [10] | Septoria Leaf Blotch Control at a compound concentration of 25 ppm or lower [11] | Wheat Fusarium Head Blight Control at a compound concentration of 25 ppm or lower [12] | Wheat Leaf Rust Control at a compound concentration of 10 ppm or lower [13] | Asian Soybean Rust Control at a compound concentration of 25 ppm or lower [14] | Plant Height [15] | Barley Powdery Mildew Reduction (%) [16] | also measured
COc1ccc(F)cc1[C@H](Cn1c(=O)n(C(C)(C)C(=O)NC(C)C)c(=O)c2c(C)c(-n3nccn3)sc21)OC(C)C [Compound I-020, (R)-2-(1-(2-(5-fluoro-2-methoxyphenyl)-2-isopropoxyethyl)-5-methyl-2,4-dioxo-6-(2H-1,2,3-triazol-2-yl)-1,4-dihydrothieno[2,3-d]pyrimidin-3 (2H)-yl)-N-isopropyl-2-methylpropanamide] | AA (≥85% control of barley powdery mildew) | AA (≥85% control of cucumber powdery mildew) | B (from 50 to 69% control of wheat septoria leaf blotch) | B (from 50 to 69% control of wheat fusarium head blight) | B (from 50 to 69% control of wheat leaf rust) | B (from 50 to 69% control of Asian soybean rust) | 40.53 cm | 91% | IC90 [1]: ≥ 0.08 µg/mL; IC90 [2]: 0.08 µg/mL (≈ 0.136 µM); IC90 [3]: 0.08 µg/mL (≈ 0.136 µM); IC90 ([4]; ≥90% inhibition, 48 hours vs 2% DMSO control, read-out: Compound Concentration (ppm) sufficient for ≥90% inhibition of growth, Fm): 0.08 µg/mL (≈ 0.136 µM); IC90 ([5]; ≥90% inhibition, 48 hours vs 2% DMSO control, read-out: Compound Concentration (ppm) sufficient for ≥90% inhibition of growth, Fv): 0.4 µg/mL (≈ 0.682 µM); IC90 [6]: > 50 µg/mL; IC90 ([7]; ≥90% inhibition, 48 hours vs 2% DMSO control, read-out: Compound Concentration (ppm) sufficient for ≥90% inhibition of growth, Rs): 0.08 µg/mL (≈ 0.136 µM); IC90 ([8]; Zymoseptoria tritici, 48 h, ≥90% inhibition, 48 hours vs 2% DMSO control, read-out: Compound Concentration (ppm) sufficient for ≥90% inhibition of growth, St): ≥ 2 µg/mL
CCOC(=O)c1sc2c(c1C)c(=O)n(C(C)(C)C(=O)NC(C)C)c(=O)n2C[C@H](OCCC#N)c1cc(F)ccc1OC [Compound I-181, (R)-ethyl-1-(2-(2-cyanoethoxy)-2-(5-fluoro-2-methoxyphenyl)ethyl)-3-(1-(isopropylamino)-2-methyl-1-oxopropan-2-yl)-5-methyl-2,4-dioxo-1,2,3,4-tetrahydrothieno[2,3-d]pyrimidine-6-carboxylate] | AA (≥85% control of barley powdery mildew) | AA (≥85% control of cucumber powdery mildew) | B (from 50 to 69% control of wheat septoria leaf blotch) | B (from 50 to 69% control of wheat fusarium head blight) | AA (≥85% control of wheat leaf rust) | B (from 50 to 69% control of Asian soybean rust) | 47.63 cm | 57% | IC90 ([4]; ≥90% growth inhibition, 48 hours, vs 2% DMSO control, read-out: Compound Concentration (ppm) sufficient for ≥90% inhibition of Fm): 0.08 µg/mL (≈ 0.133 µM); IC90 ([5]; ≥90% growth inhibition, 48 hours, vs 2% DMSO control, read-out: Compound Concentration (ppm) sufficient for ≥90% inhibition of Fv): 0.4 µg/mL (≈ 0.664 µM); IC90 ([7]; ≥90% growth inhibition, 48 hours, vs 2% DMSO control, read-out: Compound Concentration (ppm) sufficient for ≥90% inhibition of Rs): 0.08 µg/mL (≈ 0.133 µM); Compound Concentration (ppm) sufficient for ≥90% inhibition of St ([8]; ≥90% growth inhibition, 48 hours, vs 2% DMSO control): ≥10.0 ppm; Plant Weight ([17]; fresh weight at 14 days): 3.16 g; Improvement in plant weight [17, 19]: 39.4%; Plant Weight ([18]; fresh weight at 14 days): 4.73 g; Improvement in plant weight [18, 19]: 76%
